Measured values as given in patent publication US11884708B2, “Stapled peptide inhibitors of nemo as potential anti-inflammatory and anti-cancer drugs” (INSTITUT PASTEUR, priority 2015, dated 2024).
Read-outs that look alike come from different tables or passages of the source. Where a SMILES comes first, the peptide text is derived from it. Bridges are numbered along the chain shown (N, C = ends). [ ]: non-standard residue; d: D form. The star is where a group is joined. BODIPYFLEthylmaleimide = Cc1cc(C)n2c1C=C1C=CC(CCC(=O)NCCN3C(=O)CC(*)C3=O)=[N+]1[B-]2(F)F; R8 = C=CCCCCCC[C@@](C)(N)C(=O)O; S5 = C=CCCC[C@](C)(N)C(=O)O

What was measured:
CC2-LZ domain of NEMO = CC2-LZ domain of NEMO (Mus musculus, UniProt O88522); test: Fluorescence anisotropy/polarization binding assay; conditions: for Kd: fixed peptide concentration 0.1 μM; for Binding affinity (FP) at 10 μM: fixed peptide concentration 10 μM
Chain of CC2-LZ domain of NEMO (O88522 242-343 limits assumed): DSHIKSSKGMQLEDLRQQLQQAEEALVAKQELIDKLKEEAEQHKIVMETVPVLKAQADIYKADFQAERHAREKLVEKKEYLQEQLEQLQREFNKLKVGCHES
Method: Measurements were performed on a Tecan infinite F500 equipped with polarizing filters and using excitation and emission wavelengths at 485 nm and 535 nm, respectively. Anisotropy data were calculated using the Magellan software version 6.5. Prior experiments, the mouse CC2-LZ was extensively dialyzed in binding buffer containing 20 mM HEPES pH 7.4, 100 mM NaCl, and 0.05% P20 detergent (v/v). All experiments were performed in a 384 well plate (vol 25 μl) at room temperature. The BODIPY®-labeled peptide concentrations were fixed at 0.1 or 10 μM whereas the CC2-LZ concentration varied from 0 to 100 μM. Reference calibrated at 22 mP, was based on the fluorescence of the peptide alone. Each experimental binding curve was determined from at least 10 independent concentration points. The G-factor was calculated as previously described in Agou et al. [7], with a value of 0.75, which was observed constant within 5% upon all titrations. For analysis, the blank value corresponding to the value of buffer alone, was subtracted from all titration data.
All NEMO peptides were conjugated to an extra N-terminal cysteine with the fluorophore BODIPY® or FITC to determine their binding affinity for the CC2-LZ domain of NEMO (also called NOA or UBAN) by fluorescence polarization. For each peptide titration, various concentration of the target ranging from 0 to 100 μM and a fixed concentration of peptide at 0.1 or 10 μM were used at 25° C. […] For these reasons, all further titration experiments were performed with a fixed peptide concentration of 0.1 μM unless otherwise indicated.

[1] = Temperature-induced denaturation followed by CD; format: physicochemical; conditions: 30 μM or 300 μM, ΔCp ≈ 0; for Tm: thermal denaturation by CD; for ΔH: van't Hoff enthalpy change at Tm
Method: Temperature-induced denaturation experiments were performed by measuring the ellipticity at 222 nm from 1° C. to 95° C. in 1° C. steps, at a rate of 1° C./min, with a 2 nm bandwidth. Thermodynamic parameters including the melting temperature (Tm) and the van't Hoff enthalpy change at the melting temperature (ΔHm) were determined by fitting the denaturation curves with the Gibbs-Helmholtz equation as described elsewhere, [10]. The heat capacity change (ΔCp) was assumed to be 0 as judged by ΔHm which yielded similar values within 10% at two independent peptide concentrations (30 and 300 μM). The ellipticity was converted to differential extinction coefficient Δε (M^−1·cm^−1) per residue taking into account the peptide concentration determined by amino acid analysis.
Thermal stability of the peptides was also investigated by performing thermal denaturation profiles followed by CD (FIGS. 1 C and D and Table III). […] Indeed, the helicity of UBI-Aib (49%) is only 1.16-fold increased at 1° C. compared to UBI (42%), while its melting temperature (Tm=−8° C.) is 2.25 times higher than that of UBI (Tm=−18° C.).

[2] = CD spectroscopy, α-helical content; format: physicochemical; conditions: 50 μM peptide, phosphate buffer pH 7.0, UBI in TFE taken as 100%
[3] = read-out: Binding affinity (FP) at 0.1 μM

Structure (SMILES)	Kd (CC2-LZ domain of NEMO; [3]) [µM]	ΔS [1]	Tm [1]	ΔH [1]	α-helical content at 1° C. [2]	Binding affinity (FP) at 10 μM (CC2-LZ domain of NEMO)	Kd (CC2-LZ domain of NEMO; peptides with antennapedia, read-out: KD) [µM]	Kd (CC2-LZ domain of NEMO; peptides with antennapedia) [µM]
CC(=O)N[C@@H](CSC1CC(=O)N(CCNC(=O)CCC2=[N+]3C(=Cc4c(C)cc(C)n4[B-]3(F)F)C=C2)C1=O)C(=O)N[C@@H](CCC(=O)O)C(=O)N[C@@H](CC(C)C)C(=O)N[C@@H](C)C(=O)N[C@@H](CCC(N)=O)C(=O)N[C@@H](CC(C)C)C(=O)N[C@@H](CCC(N)=O)C(=O)N[C@@H](C)C(=O)N[C@@H](CCC(=O)O)C(=O)N[C@@H](CC(C)C)C(=O)N[C@@H](CC(=O)O)C(=O)N[C@]1(C)CCCCCCC=CCCC[C@@](C)(C(=O)N[C@@H](CC(=O)O)C(=O)N[C@@H](CCCCN)C(=O)N[C@@H](CCC(N)=O)C(=O)N[C@@H](CCC(=O)O)C(=O)N[C@@H](CC(C)C)C(=O)N[C@@H](CCCNC(=N)N)C(=O)N[C@@H](CCCCN)C(=O)N[C@@H](CC(C)C)C(N)=O)NC(=O)[C@H](CCC(N)=O)NC(=O)[C@H](C(C)C)NC(=O)[C@H](C(C)C)NC(=O)[C@H](C)NC(=O)[C@H](CCC(N)=O)NC(=O)[C@H](C(C)C)NC1=O (single isomer, unassigned) [Co-SAHN I307-A314 (A), ELAQLQAELDXVQAVVQXDKQELRKL, reference compound]	> 1850	A: −24 - cal. mol^−1.K^−1	A: 21 - B: C°	A: −6970 - (cal. mol)^−1	A: 45% -			
CC(=O)N[C@@H](CSC1CC(=O)N(CCNC(=O)CCC2=[N+]3C(=Cc4c(C)cc(C)n4[B-]3(F)F)C=C2)C1=O)C(=O)N[C@@H](CCC(=O)O)C(=O)N[C@@H](CC(C)C)C(=O)N[C@@H](C)C(=O)N[C@@H](CCC(N)=O)C(=O)N[C@@H](CC(C)C)C(=O)N[C@@H](CCC(N)=O)C(=O)N[C@@H](C)C(=O)N[C@@H](CCC(=O)O)C(=O)N[C@@H](CC(C)C)C(=O)N[C@@H](CC(=O)O)C(=O)N[C@]1(C)CCCCCCC=CCCC[C@@](C)(C(=O)N[C@@H](CC(=O)O)C(=O)N[C@@H](CCCCN)C(=O)N[C@@H](CCC(N)=O)C(=O)N[C@@H](CCC(=O)O)C(=O)N[C@@H](CC(C)C)C(=O)N[C@@H](CCCNC(=N)N)C(=O)N[C@@H](CCCCN)C(=O)N[C@@H](CC(C)C)C(N)=O)NC(=O)[C@H](CCC(N)=O)NC(=O)[C@H](C(C)C)NC(=O)[C@H](C(C)C)NC(=O)[C@H](C)NC(=O)[C@H](CCC(N)=O)NC(=O)[C@H](C(C)C)NC1=O (single isomer, unassigned) [Co-SAHN I307-A314 (B), ELAQLQAELDXVQAVVQXDKQELRKL, reference compound]	> 800	B: −24 cal. mol^−1.K^−1	32 ± 0.3 C°	B: −7200 (cal. mol)^−1	B: 58%			
CC[C@H](C)[C@@H]1NC(=O)[C@](C)(NC(=O)[C@H](C)NC(=O)[C@H](CCC(N)=O)NC(=O)[C@H](C)NC(=O)[C@H](CCCCN)NC(=O)[C@H](CC(C)C)NC(=O)[C@H](CSC2CC(=O)N(CCNC(=O)CCC3=[N+]4C(=Cc5c(C)cc(C)n5[B-]4(F)F)C=C3)C2=O)NC(C)=O)CCCCCCC=CCCC[C@@](C)(C(=O)N[C@@H](C)C(=O)N[C@@H](CCC(=O)O)C(=O)N[C@@H](CCCNC(=N)N)C(=O)N[C@@H](Cc2c[nH]cn2)C(=O)N[C@@H](C)C(=O)N[C@@H](CCCNC(=N)N)C(=O)N[C@@H](CCC(=O)O)C(=O)N[C@@H](CCCCN)C(N)=O)NC(=O)[C@H](Cc2ccccc2)NC(=O)[C@H](CCCNC(=N)N)NC(=O)[C@H](C)NC(=O)[C@H](CCCCN)NC(=O)[C@H](Cc2ccc(O)cc2)NC1=O (single isomer, unassigned) [UBI-SAHN D306-Q313 (A)]	34 ± 6	A: −16 - cal. mol^−1.K^−1	35 ± 0.3 C°	A: −4800 - (cal. mol)^−1	A: 75% -	Very weak		
CC[C@H](C)[C@@H]1NC(=O)[C@](C)(NC(=O)[C@H](C)NC(=O)[C@H](CCC(N)=O)NC(=O)[C@H](C)NC(=O)[C@H](CCCCN)NC(=O)[C@H](CC(C)C)NC(=O)[C@H](CSC2CC(=O)N(CCNC(=O)CCC3=[N+]4C(=Cc5c(C)cc(C)n5[B-]4(F)F)C=C3)C2=O)NC(C)=O)CCCCCCC=CCCC[C@@](C)(C(=O)N[C@@H](C)C(=O)N[C@@H](CCC(=O)O)C(=O)N[C@@H](CCCNC(=N)N)C(=O)N[C@@H](Cc2c[nH]cn2)C(=O)N[C@@H](C)C(=O)N[C@@H](CCCNC(=N)N)C(=O)N[C@@H](CCC(=O)O)C(=O)N[C@@H](CCCCN)C(N)=O)NC(=O)[C@H](Cc2ccccc2)NC(=O)[C@H](CCCNC(=N)N)NC(=O)[C@H](C)NC(=O)[C@H](CCCCN)NC(=O)[C@H](Cc2ccc(O)cc2)NC1=O (single isomer, unassigned) [UBI-SAHN D306-Q313 (B)]		B: −17 cal. mol^−1.K^−1	35 ± 0.3 C°	B: −5290 (cal. mol)^−1	B: 76%	Very weak		
CC[C@H](C)[C@H](NC(=O)[C@H](CC(=O)O)NC(=O)[C@H](C)NC(=O)[C@H](CCC(N)=O)NC(=O)[C@H](C)NC(=O)[C@H](CCCCN)NC(=O)[C@H](CC(C)C)NC(=O)[C@H](CCCCN)NC(=O)[C@H](CCCCN)NC(=O)[C@H](Cc1c[nH]c2ccccc12)NC(=O)[C@H](CCCCN)NC(=O)[C@H](CCSC)NC(=O)[C@H](CCCNC(=N)N)NC(=O)[C@H](CCCNC(=N)N)NC(=O)[C@H](CC(N)=O)NC(=O)[C@H](CCC(N)=O)NC(=O)[C@H](Cc1ccccc1)NC(=O)[C@H](Cc1c[nH]c2ccccc12)NC(=O)[C@@H](NC(=O)[C@H](CCCCN)NC(=O)[C@@H](NC(=O)[C@H](CCC(N)=O)NC(=O)[C@H](CCCNC(=N)N)NC(=O)[C@H](CSC1CC(=O)N(CCNC(=O)CCC2=[N+]3C(=Cc4c(C)cc(C)n4[B-]3(F)F)C=C2)C1=O)NC(C)=O)[C@@H](C)CC)[C@@H](C)CC)C(=O)N[C@@H](Cc1ccc(O)cc1)C(=O)N[C@@H](CCCCN)C(=O)N[C@@]1(C)CCCC=CCCC[C@@](C)(C(=O)N[C@@H](CCC(=O)O)C(=O)N[C@@H](CCCNC(=N)N)C(=O)N[C@@H](Cc2c[nH]cn2)C(=O)N[C@@H](C)C(=O)N[C@@H](CCCNC(=N)N)C(=O)N[C@@H](CCC(=O)O)C(=O)N[C@@H](CCCCN)C(N)=O)NC(=O)[C@H](CCC(N)=O)NC(=O)[C@H](Cc2ccccc2)NC(=O)[C@H](CCCNC(=N)N)NC1=O (stereo partly drawn) [A-UBI-SAHN A310-A314, RQIKIWFQNRRMKWKKLKAQADIYKX4RFQX6ERHAREK] (Ac-C(BODIPYFLEthylmaleimide)RQIKIWFQNRRMKWKKLKAQADIYK[S5]RFQ[S5]ERHAREK-NH2; staple 27-31)					57%		0.2	
CC[C@H](C)[C@H](NC(=O)[C@H](CCCCN)NC(=O)[C@@H](NC(=O)[C@H](CCC(N)=O)NC(=O)[C@H](CCCNC(=N)N)NC(=O)[C@H](CSC1CC(=O)N(CCNC(=O)CCC2=[N+]3C(=Cc4c(C)cc(C)n4[B-]3(F)F)C=C2)C1=O)NC(C)=O)[C@@H](C)CC)C(=O)N[C@@H](Cc1c[nH]c2ccccc12)C(=O)N[C@@H](Cc1ccccc1)C(=O)N[C@@H](CCC(N)=O)C(=O)N[C@@H](CC(N)=O)C(=O)N[C@@H](CCCNC(=N)N)C(=O)N[C@@H](CCCNC(=N)N)C(=O)N[C@@H](CCSC)C(=O)N[C@@H](CCCCN)C(=O)N[C@@H](Cc1c[nH]c2ccccc12)C(=O)N[C@@H](CCCCN)C(=O)N[C@@H](CCCCN)C(=O)N[C@@H](CC(C)C)C(=O)N[C@@H](CCCCN)C(=O)N[C@@H](C)C(=O)N[C@@H](CCC(N)=O)C(=O)N[C@@H](C)C(=O)N[C@]1(C)CCCCCCC=CCCC[C@@](C)(C(=O)N[C@@H](C)C(=O)N[C@@H](CCC(=O)OC)C(=O)N[C@@H](CCCNC(=N)N)C(=O)N[C@@H](Cc2c[nH]cn2)C(=O)N[C@@H](C)C(=O)N[C@@H](CCCNC(=N)N)C(=O)N[C@@H](CCC(=O)OC)C(=O)N[C@@H](CCCCN)C(N)=O)NC(=O)[C@H](Cc2ccccc2)NC(=O)[C@H](CCCNC(=N)N)NC(=O)[C@H](C)NC(=O)[C@H](CCCCN)NC(=O)[C@H](Cc2ccc(O)cc2)NC(=O)[C@H]([C@@H](C)CC)NC1=O (stereo partly drawn) [A-UBI-SAHN D306-Q313 OMe, RQIKIWFQNRRMKWKKLKAQAX2IYKARFX5AX7RHARX9K] (Ac-C(BODIPYFLEthylmaleimide)RQIKIWFQNRRMKWKKLKAQA[R8]IYKARF[S5]AE(OMe)RHARE(OMe)K-NH2; staple 23-30)								0.06 ± 0.01
